Data from ChEMBL document CHEMBL5214967, “Natural Product-Inspired Targeted Protein Degraders: Advances and Perspectives” (J Med Chem, 2022).

Assays:
[1] = target: von Hippel-Lindau disease tumor suppressor/Estrogen receptor (Homo sapiens, UniProt P03372+P40337); assay: PROTAC activity at VHL/ERalpha in human MCF7 cells assessed as degradation of ERalpha; type: cell-based
[2] = target: von Hippel-Lindau disease tumor suppressor/G-protein coupled estrogen receptor 1 (Homo sapiens, UniProt Q99527+P40337); assay: PROTAC activity at VHL/GPER (unknown origin) assessed as degradation of GPER; type: protein assay
von Hippel-Lindau disease tumor suppressor/G-protein coupled estrogen receptor 1, sequence (Q99527 whole entry): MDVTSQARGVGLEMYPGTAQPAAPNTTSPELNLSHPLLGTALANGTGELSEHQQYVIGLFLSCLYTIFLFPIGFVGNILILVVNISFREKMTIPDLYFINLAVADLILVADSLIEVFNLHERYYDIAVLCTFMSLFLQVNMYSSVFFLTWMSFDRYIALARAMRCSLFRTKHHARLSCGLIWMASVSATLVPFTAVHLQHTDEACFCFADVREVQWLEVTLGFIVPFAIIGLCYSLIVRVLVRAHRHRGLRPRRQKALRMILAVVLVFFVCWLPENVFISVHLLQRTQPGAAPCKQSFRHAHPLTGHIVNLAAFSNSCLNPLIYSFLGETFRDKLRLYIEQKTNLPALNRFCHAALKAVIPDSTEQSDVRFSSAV
von Hippel-Lindau disease tumor suppressor/G-protein coupled estrogen receptor 1, sequence (P40337 whole entry): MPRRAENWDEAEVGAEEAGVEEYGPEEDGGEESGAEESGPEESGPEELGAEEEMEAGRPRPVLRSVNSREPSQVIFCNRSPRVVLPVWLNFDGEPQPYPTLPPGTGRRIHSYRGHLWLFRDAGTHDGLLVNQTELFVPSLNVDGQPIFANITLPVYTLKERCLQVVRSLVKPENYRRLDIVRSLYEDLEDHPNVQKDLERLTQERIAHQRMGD

[3] = tested on: MCF7; assay: Cytotoxicity against human MCF7 cells by inducing cell cycle arrest incubated for 30 mins measured by FacScallibur flow cytometric analysis; type: functional, cell-based; conditions: MCF7, 0.5 h
[4] = tested on: SK-BR-3; assay: Cytotoxicity against human SK-BR-3 cells by inducing cell cycle arrest incubated for 30 mins measured by FacScallibur flow cytometric analysis; type: functional, cell-based; conditions: SK-BR-3, 0.5 h
[5] = tested on: SU-DHL-1; assay: Cytotoxicity against human SU-DHL-1 cells incubated for 72 hrs by CCK-8 assay; type: functional, cell-based; conditions: SU-DHL-1, 72 h
[6] = tested on: HT-29; assay: Cytotoxicity against human HT-29 cells incubated for 72 hrs by CCK-8 assay; type: functional, cell-based; conditions: HT-29, 72 h
[7] = tested on: MCF7; assay: cells; conditions: Homo sapiens, MCF7, 72 h
Description: Antiproliferative activity against human MCF7 cells incubated for 72 hrs by MTT assay

[8] = tested on: LNCaP; assay: Cytotoxicity against human LNCap cells; type: functional, cell-based
[9] = target: Kelch-like ECH-associated protein 1/Cyclin-dependent kinase 9 (Homo sapiens, UniProt P50750+Q14145); assay: PROTAC activity at Keap1/CDK9 in human MOLT4 cells measured after 16 hrs; type: cell-based; conditions: molt-4
Kelch-like ECH-associated protein 1/Cyclin-dependent kinase 9, sequence (P50750 whole entry): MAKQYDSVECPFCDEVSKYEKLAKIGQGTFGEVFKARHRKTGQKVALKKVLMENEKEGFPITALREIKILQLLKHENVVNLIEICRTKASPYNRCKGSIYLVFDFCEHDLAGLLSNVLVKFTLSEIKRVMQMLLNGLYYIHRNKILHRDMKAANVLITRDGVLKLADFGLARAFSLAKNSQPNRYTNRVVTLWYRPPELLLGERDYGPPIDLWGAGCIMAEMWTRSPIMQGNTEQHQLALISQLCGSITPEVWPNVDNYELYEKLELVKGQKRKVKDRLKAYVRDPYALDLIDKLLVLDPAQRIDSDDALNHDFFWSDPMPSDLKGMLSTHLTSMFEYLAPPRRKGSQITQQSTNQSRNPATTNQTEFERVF
Kelch-like ECH-associated protein 1/Cyclin-dependent kinase 9, sequence (Q14145 whole entry): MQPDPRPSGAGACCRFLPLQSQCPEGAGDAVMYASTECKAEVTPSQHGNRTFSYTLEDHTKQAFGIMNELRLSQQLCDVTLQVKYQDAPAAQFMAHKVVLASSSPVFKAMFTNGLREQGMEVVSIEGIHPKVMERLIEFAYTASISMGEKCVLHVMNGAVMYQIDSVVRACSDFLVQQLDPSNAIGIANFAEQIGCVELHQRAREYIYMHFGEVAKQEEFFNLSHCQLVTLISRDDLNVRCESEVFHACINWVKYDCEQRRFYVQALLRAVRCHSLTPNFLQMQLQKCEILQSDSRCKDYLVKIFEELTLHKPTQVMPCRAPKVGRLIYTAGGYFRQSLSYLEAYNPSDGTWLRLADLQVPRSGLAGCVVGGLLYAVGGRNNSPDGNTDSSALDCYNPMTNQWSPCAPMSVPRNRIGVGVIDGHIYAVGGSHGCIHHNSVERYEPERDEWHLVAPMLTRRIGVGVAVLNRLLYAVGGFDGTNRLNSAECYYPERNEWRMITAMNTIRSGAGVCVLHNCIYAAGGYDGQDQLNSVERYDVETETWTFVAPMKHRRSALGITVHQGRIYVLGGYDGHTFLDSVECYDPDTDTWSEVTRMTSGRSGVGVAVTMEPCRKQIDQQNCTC

[10] = tested on: CWR22R; assay: Cytotoxicity against human 22Rv1 cells; type: functional, cell-based
[11] = tested on: DU-145; assay: Cytotoxicity against human DU-145 cells; type: functional, cell-based
[12] = target: T1, Kelch-like ECH-associated protein 1/Bromodomain-containing protein 4 (Homo sapiens, UniProt O60885+Q14145); assay: PROTAC activity at Keap1/BRD4 in human MDA-MB-231 cells assessed as degradation of BRD4 measured after 10 hrs; type: cell-based
T1 sequence (Q14145 whole entry, looked up, other chains not shown): as the sequence (Q14145 whole entry) above

[13] = target: T1, Kelch-like ECH-associated protein 1/Bromodomain-containing protein 4; assay: PROTAC activity at Keap1/BRD4 in human MDA-MB-231 cells assessed as degradation of BRD4 measured after 5 hrs; type: cell-based
[14] = tested on: SK-MEL-5; assay: In vivo antitumor activity against human SK-MEL-5 cells xenografted in BALB/c nude mouse administered intraperitoneally every 2 days for 17 days; type: functional, organism-based
[15] = target: Protein cereblon/Basigin (Homo sapiens, UniProt P35613+Q96SW2); assay: PROTAC activity at CRBN/CD147 (unknown origin) assessed as degradation of CD147; type: protein assay
Protein cereblon/Basigin, sequence (P35613 whole entry): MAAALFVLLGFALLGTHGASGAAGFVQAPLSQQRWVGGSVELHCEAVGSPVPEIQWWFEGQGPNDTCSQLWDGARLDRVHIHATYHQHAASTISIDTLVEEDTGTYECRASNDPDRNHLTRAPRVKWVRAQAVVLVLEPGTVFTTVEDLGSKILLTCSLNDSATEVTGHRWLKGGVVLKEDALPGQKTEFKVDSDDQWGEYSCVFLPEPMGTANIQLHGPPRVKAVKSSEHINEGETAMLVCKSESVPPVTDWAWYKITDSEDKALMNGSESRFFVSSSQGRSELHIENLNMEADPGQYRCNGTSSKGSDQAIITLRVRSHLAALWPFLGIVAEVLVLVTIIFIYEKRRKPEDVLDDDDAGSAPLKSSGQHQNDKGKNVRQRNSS
Protein cereblon/Basigin, sequence (Q96SW2 whole entry): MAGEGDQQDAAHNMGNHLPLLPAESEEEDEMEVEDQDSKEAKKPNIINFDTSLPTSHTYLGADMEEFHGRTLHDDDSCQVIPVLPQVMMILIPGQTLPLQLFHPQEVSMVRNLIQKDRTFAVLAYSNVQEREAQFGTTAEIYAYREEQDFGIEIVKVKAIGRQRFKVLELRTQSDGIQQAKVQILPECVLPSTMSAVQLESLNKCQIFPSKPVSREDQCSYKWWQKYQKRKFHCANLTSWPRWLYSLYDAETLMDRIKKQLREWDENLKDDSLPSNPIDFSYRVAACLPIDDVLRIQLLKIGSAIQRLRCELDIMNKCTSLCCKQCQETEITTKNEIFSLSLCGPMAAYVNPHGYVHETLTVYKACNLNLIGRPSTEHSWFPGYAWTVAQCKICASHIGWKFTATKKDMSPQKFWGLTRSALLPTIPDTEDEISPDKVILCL

[16] = target: T2, 3-hydroxy-3-methylglutaryl-coenzyme A reductase (Homo sapiens, UniProt P04035); assay: Degradation of HMGCR (unknown origin)
T2 sequence (P04035 whole entry): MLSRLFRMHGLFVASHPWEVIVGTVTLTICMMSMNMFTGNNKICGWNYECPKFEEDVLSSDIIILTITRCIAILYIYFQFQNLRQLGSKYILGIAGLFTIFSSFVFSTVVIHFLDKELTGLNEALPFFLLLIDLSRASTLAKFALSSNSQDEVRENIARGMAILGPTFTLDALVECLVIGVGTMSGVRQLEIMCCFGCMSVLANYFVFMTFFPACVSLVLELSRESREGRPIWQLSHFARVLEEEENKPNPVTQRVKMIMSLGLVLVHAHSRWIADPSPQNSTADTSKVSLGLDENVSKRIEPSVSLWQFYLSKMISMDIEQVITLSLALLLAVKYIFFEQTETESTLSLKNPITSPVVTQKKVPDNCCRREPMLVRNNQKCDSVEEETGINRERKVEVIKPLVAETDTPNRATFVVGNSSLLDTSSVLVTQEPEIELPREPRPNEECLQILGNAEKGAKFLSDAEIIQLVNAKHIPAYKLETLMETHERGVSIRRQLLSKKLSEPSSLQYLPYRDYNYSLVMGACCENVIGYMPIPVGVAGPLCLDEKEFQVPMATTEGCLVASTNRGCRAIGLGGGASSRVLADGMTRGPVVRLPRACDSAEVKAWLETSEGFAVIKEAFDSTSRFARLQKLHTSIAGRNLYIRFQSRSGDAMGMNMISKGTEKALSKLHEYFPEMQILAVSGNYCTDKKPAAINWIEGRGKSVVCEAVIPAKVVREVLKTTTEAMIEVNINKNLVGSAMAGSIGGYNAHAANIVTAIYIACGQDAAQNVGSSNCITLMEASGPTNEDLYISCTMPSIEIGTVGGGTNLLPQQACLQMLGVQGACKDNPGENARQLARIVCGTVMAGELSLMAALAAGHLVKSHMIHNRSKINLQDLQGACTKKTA

[17] = target: T3, Protein cereblon/Protein deacetylase HDAC6 (Homo sapiens, UniProt Q9UBN7+Q96SW2); assay: PROTAC activity at CRBN/HDAC6 (unknown origin) assessed as degradation of HDAC6; type: protein assay
Target sequence in this assay (Q9UBN7 whole entry): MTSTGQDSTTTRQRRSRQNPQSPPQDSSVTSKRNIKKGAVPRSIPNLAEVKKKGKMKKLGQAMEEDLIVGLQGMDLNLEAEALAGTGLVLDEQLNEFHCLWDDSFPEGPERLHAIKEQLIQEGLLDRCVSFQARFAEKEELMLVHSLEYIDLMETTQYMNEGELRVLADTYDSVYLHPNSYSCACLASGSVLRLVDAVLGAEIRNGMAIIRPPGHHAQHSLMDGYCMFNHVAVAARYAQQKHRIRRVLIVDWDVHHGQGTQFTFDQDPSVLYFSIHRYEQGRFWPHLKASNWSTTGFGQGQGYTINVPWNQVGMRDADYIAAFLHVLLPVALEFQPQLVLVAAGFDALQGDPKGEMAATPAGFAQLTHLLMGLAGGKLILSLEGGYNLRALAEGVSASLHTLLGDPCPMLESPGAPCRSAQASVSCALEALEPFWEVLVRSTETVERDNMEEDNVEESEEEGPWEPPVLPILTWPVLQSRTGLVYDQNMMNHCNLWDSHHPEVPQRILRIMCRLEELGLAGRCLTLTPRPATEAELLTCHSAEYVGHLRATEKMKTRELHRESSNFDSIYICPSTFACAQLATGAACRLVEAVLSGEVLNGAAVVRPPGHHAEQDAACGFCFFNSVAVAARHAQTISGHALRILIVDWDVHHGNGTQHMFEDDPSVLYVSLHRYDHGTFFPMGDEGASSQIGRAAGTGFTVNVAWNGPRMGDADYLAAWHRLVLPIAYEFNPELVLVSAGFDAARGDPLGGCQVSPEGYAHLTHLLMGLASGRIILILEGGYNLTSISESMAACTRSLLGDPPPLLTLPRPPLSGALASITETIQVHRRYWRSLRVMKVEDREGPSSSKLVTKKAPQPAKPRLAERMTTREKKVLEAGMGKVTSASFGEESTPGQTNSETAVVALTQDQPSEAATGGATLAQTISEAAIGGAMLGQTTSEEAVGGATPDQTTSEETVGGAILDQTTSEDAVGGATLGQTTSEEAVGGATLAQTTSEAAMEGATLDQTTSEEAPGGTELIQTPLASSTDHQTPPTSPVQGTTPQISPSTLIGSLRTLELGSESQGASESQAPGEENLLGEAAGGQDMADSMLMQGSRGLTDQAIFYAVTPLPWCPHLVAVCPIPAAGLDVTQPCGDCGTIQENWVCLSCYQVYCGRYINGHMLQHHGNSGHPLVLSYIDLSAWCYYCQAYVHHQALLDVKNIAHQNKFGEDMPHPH
Target sequence in this assay (Q96SW2 whole entry): as the sequence (Q96SW2 whole entry) above

[18] = target: T3, Protein cereblon/Protein deacetylase HDAC6; assay: PROTAC activity at CRBN/HDAC6 (unknown origin) assessed as degradation of HDAC6 relative to control; type: protein assay
Target sequence in this assay (Q96SW2 whole entry, looked up): as the sequence (Q96SW2 whole entry) above
Target sequence in this assay (Q9UBN7 whole entry, looked up): as the sequence (Q9UBN7 whole entry) above

von Hippel-Lindau disease tumor suppressor/Estrogen receptor, sequence (P03372 whole entry): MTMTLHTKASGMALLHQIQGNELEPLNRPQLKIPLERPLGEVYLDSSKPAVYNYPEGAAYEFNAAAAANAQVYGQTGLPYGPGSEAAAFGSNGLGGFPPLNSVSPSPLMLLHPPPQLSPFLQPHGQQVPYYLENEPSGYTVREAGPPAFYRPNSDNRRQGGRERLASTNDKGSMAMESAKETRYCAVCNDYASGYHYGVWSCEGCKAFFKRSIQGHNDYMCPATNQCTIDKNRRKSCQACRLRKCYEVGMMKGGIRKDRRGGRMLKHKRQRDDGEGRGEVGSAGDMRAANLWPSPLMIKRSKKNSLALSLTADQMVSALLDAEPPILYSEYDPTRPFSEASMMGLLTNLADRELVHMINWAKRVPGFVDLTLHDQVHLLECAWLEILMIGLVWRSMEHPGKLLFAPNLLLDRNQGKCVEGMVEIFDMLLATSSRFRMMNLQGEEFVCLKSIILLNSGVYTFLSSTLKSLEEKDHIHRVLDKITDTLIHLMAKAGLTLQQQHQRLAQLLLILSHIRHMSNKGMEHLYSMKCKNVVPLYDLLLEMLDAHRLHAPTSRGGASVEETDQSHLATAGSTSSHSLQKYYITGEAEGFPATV
von Hippel-Lindau disease tumor suppressor/Estrogen receptor, sequence (P40337 whole entry): as the sequence (P40337 whole entry) above

Cc1ncsc1-c1ccc(CNC(=O)[C@@H]2C[C@@H](O)CN2C(=O)[C@@H](NC(=O)COCCOCCOCCOCC(=O)NCCOCCOCCOCCOCCOCCOCCOCCOCCC(=O)O[C@H]2CC[C@H]3[C@@H]4CCc5cc(O)ccc5[C@H]4CC[C@]23C)C(C)(C)C)cc1
DC50 [1]: 10000 nM
DC50 [2]: 100000 nM
IC50 [3]: 17000 nM
IC50 [4]: 11100 nM

Cc1cc(Nc2ncc(N)c(Nc3ccccc3S(=O)(=O)C(C)C)n2)c(OC(C)C)cc1C1CCN(C(=O)CCCC(=O)N[C@@H](C(=O)N2C[C@H](OC(=O)CCCCn3cc(CNC(=O)CCC(NC(=O)c4ccc(NCc5cnc6nc(N)[nH]c(=O)c6n5)cc4)C(=O)O)nn3)C[C@H]2C(=O)N[C@@H](C)c2ccc(-c3scnc3C)cc2)C(C)(C)C)CC1 (stereo partly drawn)
IC50 [5]: 200 nM

Cc1ncsc1-c1ccc([C@H](C)NC(=O)[C@@H]2CC(OC(=O)CCCCn3cc(CNC(=O)CC[C@H](NC(=O)c4ccc(NCc5cnc6[nH]c(N)nc(=O)c6n5)cc4)C(=O)O)nn3)CN2C(=O)[C@H](NC(=O)CCCCCCCCCCNCCCONC(=O)c2ccc(F)c(F)c2Nc2ccc(I)cc2F)C(C)(C)C)cc1 (stereo partly drawn)
IC50 [6]: 436 nM

COc1c(O)cc(O)c2c(=O)cc(-c3ccccc3)oc12 [WOGONIN]
IC50 [7]: 30 nM

COc1cc(/C=C/C(=O)N2CCC=CC2=O)cc(OC)c1OCCN1CCN(C(=O)CN2CCC(C(=O)Nc3ncc(SCc4ncc(C(C)(C)C)o4)s3)CC2)CC1
EC50 [8]: 3.2 nM
DC50 [9]: 9 nM
EC50 [10]: 6.4 nM
EC50 [11]: 8.5 nM

CC1=C(O)C(=O)C=C2C1=CC=C1[C@@]2(C)CC[C@@]2(C)[C@@H]3C[C@](C)(C(=O)NCCCOCCOCCOCCCNC(=O)C[C@@H]4N=C(c5ccc(Cl)cc5)c5c(sc(C)c5C)-n5c(C)nnc54)CC[C@]3(C)CC[C@]12C
DC50 [12]: 9.6 nM
DC50 [13]: 29 nM

COC(=O)C1=CC[C@]23CC[C@H]([C@@]2(OC(C)=O)CC1)[C@](C)(/C=C/C=C(\C)C(=O)NCCNc1cccc2c1C(=O)N(C1CCC(=O)NC1=O)C2=O)OC3=O (stereo partly drawn)
IC50 [14]: 6230 nM
IC50 [15]: 6720 nM

CC(=O)N1N=CC2C[C@@]3(C)C(=CC[C@H]4[C@@H]5CC[C@H]([C@H](C)CCC(=O)N6CCOCC6)[C@@]5(C)CC[C@@H]43)C(C)(C)C21 (stereo partly drawn)
DC50 [16]: 220 nM

O=C(CCCO/N=C1/C(=C2/C(=O)N(Cc3cn(CCOCCNc4cccc5c4C(=O)N(C4CCC(=O)NC4=O)C5=O)nn3)c3ccccc32)Nc2ccccc21)NO (stereo not drawn)
DC50 [17]: 109 nM
Emax [18]: 88%
